Experimental data: ChEMBL document CHEMBL1146678, “Inhibitors of multidrug resistance (MDR) have affinity for MDR substrates” (Bioorg Med Chem Lett, 2004)
The source made the active and inactive calls. The calls are words filed in the database; no cut-off is given here. Numbered stars: 1 amine (or outer) side, 2 acyl side, 3 side chain; on linkers, the order of the positions; unused ones are H or OH. Bridge positions count the residues as written; N and C are the ends. Square brackets hold non-standard residues; d marks the D form. Peptide text beside a SMILES is read from it. I, II: the chains in the order shown. Actinocin(9to1) = Cc1c2oc3c(C)ccc(C(=O)[*:1])c3nc-2c(C(=O)[*:2])c(N)c1=O; NMeV = CN[C@H](C(=O)O)C(C)C; Sar = CNCC(=O)O

Tests used:
[1] = Dose modifying factor expressed as the ratio of IC50 for the chemotherapy drug to IC50 for drug + GG918; Range = 1.0-23; type: functional
Lycopus europaeus = test: Inhibitory activity against Lycopus europeus; no inhibitory activity; type: functional, organism-based
[2] = Fold reduction in minimum inhibitory concentration of antibiotic in presence of Reserpine; type: functional
[3] = Fold reduction in minimum inhibitory concentration of antibiotic in presence of GG918; type: functional
NCI-H69 [4] = test: Percentage inhibition of cell growth in the presence of compound in H69/LX4 cells with B669 as inhibitor; reversal of inhibition; type: functional, cell-based
NCI-H69 [5] = test: Percentage inhibition of cell growth in the presence of compound in H69/LX4 cells with verapamil as inhibitor; reversal of inhibition; type: functional, cell-based
NCI-H69 [6] = test: Percentage inhibition of cell growth in the presence of compound in H69/LX4 cells with as GG918 inhibitor; reversal of inhibition; type: functional, cell-based
NCI-H69 [7] = test: Percentage inhibition of cell growth in the presence of compound in H69/LX4 cells with Clofazemine as inhibitor; reversal of inhibition; type: functional, cell-based
[8] = Relative resistance is the ratio of IC50 values of drug with JTV-519 to that without the reversing agent; type: functional
[9] = Dose modifying factor expressed as the ratio of IC50 for the chemotherapy drug to IC50 for drug + GG918; Range = 1.2-1850; type: functional
[10] = Fold reduction in fluorescence in presence and absence of MC-002595 at 128 mg/mL; type: functional
[11] = Inhibitory concentration in presence of MDR inhibitor XR-9576; type: functional
A549 [12] = test: Synergism with indomethacin in A549 cells; type: functional
NCI-H69 [13] = test: Approximate percentage for level of inhibition of cell growth in presence and absence of inhibitor (Value of drug + Verapamil / Value of drug); type: functional
A549 [14] = test: Synergism with sulindac in A549 cells; type: functional
[15] = Relative inhibition (IC50) in presence and absence of reserpine; type: functional
NCI-H69 [16] = test: Approximate percentage for level of inhibition of cell growth in presence and absence of inhibitor (Value of drug + GG918 / Value of drug); type: functional
DLKP cell line [17] = test: Synergism with sulindac in DLKP cells; type: functional
DLKP cell line [18] = test: Synergism with tolmedin in DLKP cells; type: functional
NCI-H69 [19] = test: Approximate percentage for level of inhibition of cell growth in presence and absence of inhibitor (Value of drug + B669 / Value of drug); type: functional
A549 [20] = test: Synergism with tolmetin in A549 cells; type: functional
NCI-H69 [21] = test: Approximate percentage for level of inhibition of cell growth in presence and absence of inhibitor (Value of drug + Clofazimine / Value of drug); type: functional
NCI-H69 [22] = test: Approximate percentage for level of inhibition of cell growth in presence and absence of inhibitor (Value of drug + alpha Tochoferol / Value of drug); type: functional
DLKP cell line [23] = test: Synergism with indomethacin in DLKP cells; type: functional
DLKP cell line [24] = test: Antagonism of sulindac in DLKP cells; type: functional
[25] = Inhibitory activity in presence of VX-710 inhibitor; successful in clinical trials; type: functional
DLKP cell line [26] = test: Antagonism of indomethacin in DLKP cells; type: functional
A549 [27] = test: Antagonism of indomethacin in A549 cells; type: functional
A549 [28] = test: Antagonism of sulindac in A549 cells; type: functional
A549 [29] = test: Antagonism of tolmetin in A549 cells; type: functional
NCI-H69 [30] = test: Percentage inhibition of cell growth in the presence of compound and in the absence of […] in H69/LX4 cells with clofazimine MDR inhibitor; type: functional

CC[C@@]1(O)C(=O)OCc2c1cc1n(c2=O)Cc2cc3c(CN(C)C)c(O)ccc3nc2-1
Ratio [1]: 1

CCn1cc(C(=O)O)c(=O)c2cc(F)c(N3CCNCC3)cc21
inhibition (Lycopus europaeus): inactive
Fold reduction [2]: 4
Fold reduction [3]: 8

COc1c(N2C[C@@H]3CCCN[C@@H]3C2)c(F)cc2c(=O)c(C(=O)O)cn(C3CC3)c12
Fold reduction [2]: 2
Fold reduction [3]: 0

Cc1c(C)c2c(c(C)c1O)CC[C@@](C)(CCC[C@H](C)CCC[C@H](C)CCCC(C)C)O2
inhibition (NCI-H69 [4]): reversal of inhibition
inhibition (NCI-H69 [5]): reversal of inhibition
inhibition (NCI-H69 [6]): reversal of inhibition
inhibition (NCI-H69 [7]): reversal of inhibition

Cc1ccc(NC(=O)c2ccc(CN3CCN(C)CC3)cc2)cc1Nc1nccc(-c2cccnc2)n1
Ratio [8]: 3.1

O=C(O)c1cn(C2CC2)c2cc(N3CCNCC3)c(F)cc2c1=O
Fold reduction [2]: 8
Fold reduction [3]: 8

O=C1c2c(O)ccc(O)c2C(=O)c2c(NCCNCCO)ccc(NCCNCCO)c21
Ratio [9]: 1.2

c1ccc(Nc2cccc3ccccc23)cc1
Fold reduction [10]: 2.3

Cc1c2oc3c(C)ccc(C(=O)N[C@@H]4C(=O)N[C@H](C(C)C)C(=O)N5CCC[C@H]5C(=O)N(C)CC(=O)N(C)[C@@H](C(C)C)C(=O)O[C@@H]4C)c3nc-2c(C(=O)N[C@@H]2C(=O)N[C@H](C(C)C)C(=O)N3CCC[C@H]3C(=O)N(C)CC(=O)N(C)[C@@H](C(C)C)C(=O)O[C@@H]2C)c(N)c1=O (I: T[dV]P[Sar][NMeV] / II: T[dV]P[Sar][NMeV]; ester I:1-I:C, II:1-II:C; linker I:N-II:N via Actinocin(9to1))
Ratio [8]: 3

COc1cccc2c1C(=O)c1c(O)c3c(c(O)c1C2=O)C[C@@](O)(C(C)=O)C[C@@H]3O[C@H]1C[C@H](N)[C@H](O)[C@H](C)O1 [DAUNORUBICIN]
IC50 [11]: 38.2 nM

COc1cccc2c1C(=O)c1c(O)c3c(c(O)c1C2=O)C[C@@](O)(C(=O)CO)C[C@@H]3O[C@H]1C[C@H](N)[C@H](O)[C@H](C)O1 [DOXORUBICIN]
Combination_index (A549 [12]): 0.251
Reduction (NCI-H69 [13]): ~33%
Combination_index (A549 [14]): 0.368
Fold increase [15]: 2.9
Reduction (NCI-H69 [16]): ~58%
Combination_index (DLKP cell line [17]): 0.449
Combination_index (DLKP cell line [18]): 0.467
Reduction (NCI-H69 [19]): ~31%
Combination_index (A549 [20]): 0.357
Reduction (NCI-H69 [21]): ~40%
Reduction (NCI-H69 [22]): 0%

COc1cc([C@@H]2c3cc4c(cc3[C@@H](O[C@@H]3O[C@@H]5CO[C@@H](C)O[C@H]5[C@H](O)[C@H]3O)[C@H]3COC(=O)[C@H]23)OCO4)cc(OC)c1O [ETOPOSIDE]
Combination_index (A549 [12]): 0.916
Combination_index (A549 [14]): 0.681
Ratio [8]: 2.6
Combination_index (DLKP cell line [17]): 0.463
Combination_index (DLKP cell line [18]): 0.745
Combination_index (DLKP cell line [23]): 0.534

CC(=O)O[C@H]1C(=O)[C@@]2(C)[C@H]([C@H](OC(=O)c3ccccc3)[C@]3(O)C[C@H](OC(=O)[C@H](O)[C@@H](NC(=O)c4ccccc4)c4ccccc4)C(C)=C1C3(C)C)[C@]1(OC(C)=O)CO[C@@H]1C[C@@H]2O [PACLITAXEL]
Combination_index (DLKP cell line [24]): 1.233
inhibition [25]: Active
Combination_index (DLKP cell line [26]): 1.227
Combination_index (A549 [27]): 2.234
Combination_index (A549 [28]): 1.539
Combination_index (A549 [29]): 1.349

CC[C@]1(O)C[C@@H]2CN(CCc3c([nH]c4ccccc34)[C@@](C(=O)OC)(c3cc4c(cc3OC)N(C)[C@H]3[C@@](O)(C(=O)OC)[C@H](OC(C)=O)[C@]5(CC)C=CCN6CC[C@]43[C@@H]65)C2)C1 [VINBLASTINE]
Reduction (NCI-H69 [30]): ~94%
Reduction (NCI-H69 [13]): ~88%
Fold increase [15]: 8
Reduction (NCI-H69 [22]): ~95%

CC[C@]1(O)C[C@H]2CN(CCc3c([nH]c4ccccc34)[C@@](C(=O)OC)(c3cc4c(cc3OC)N(C=O)[C@H]3[C@@](O)(C(=O)OC)[C@H](OC(C)=O)[C@]5(CC)C=CCN6CC[C@]43[C@@H]65)C2)C1 [VINCRISTINE]
Combination_index (A549 [12]): 0.301
Combination_index (A549 [14]): 0.462
Ratio [8]: 3.7
Combination_index (DLKP cell line [17]): 0.241
Combination_index (DLKP cell line [18]): 0.593
